The record followed here is ChEMBL document CHEMBL4004877, “Synthesis and biological evaluation of chalcone, dihydrochalcone, and 1,3-diarylpropane analogs as anti-inflammatory agents” (Bioorg Med Chem Lett, 2017).

In brackets after ≈: the same amount, converted by molar mass.

A short description of data set [1]: Cytotoxicity against LPS-stimulated mouse RAW264.7 cells assessed as cell viability at 10 ug/ml after 24 hrs by MTT assay relative to control. Format: cell-based. The following applies: LPS-stimulated RAW264.7 cells, read-out: Activity.
Data set [2] can be described thus: Cytotoxicity against LPS-stimulated mouse RAW264.7 cells assessed as cell viability at 1.25 ug/ml after 24 hrs by MTT assay relative to control. Format: cell-based. Conditions: LPS-stimulated RAW264.7 cells, read-out: Activity. Background: Tetrazolium assays rely on reduction of a dye to a coloured formazan, in cell work by metabolically active cells.
The test system of data set [3] is RAW264.7. As to the kind of experiment: Antiinflammatory activity in mouse RAW264.7 cells assessed as inhibition of LPS induced iNOS-dependent nitric oxide production after 24 hrs by Griess assay. Format: functional, cell-based. Conditions: RAW264.7, 24 h. In general terms: Griess reagent forms a coloured azo dye with nitrite.
Data set [4] can be described thus: Cytotoxicity against LPS-stimulated mouse RAW264.7 cells assessed as cell viability at 2.5 ug/ml after 24 hrs by MTT assay relative to control. The following applies: LPS-stimulated RAW264.7 cells, read-out: Activity. The class given is cell-based.
For data set [5], the system named is RAW264.7. Nature of the data set: Antiinflammatory activity in mouse RAW264.7 cells assessed as inhibition of LPS induced iNOS-dependent nitric oxide production at 5 ug/ml after 24 hrs by Griess assay relative to control. The following applies: RAW264.7, 24 h. The class given is functional.
A short description of data set [6]: Cytotoxicity against LPS-stimulated mouse RAW264.7 cells assessed as cell viability at 5 ug/ml after 24 hrs by MTT assay relative to control. The class given is cell-based. Conditions: LPS-stimulated RAW264.7 cells, read-out: Activity.
Data set [7] has as its system RAW264.7. As to the kind of experiment: Antiinflammatory activity in mouse RAW264.7 cells assessed as inhibition of LPS induced iNOS-dependent nitric oxide production at 2.5 ug/ml after 24 hrs by Griess assay relative to control. The class given is functional. The following applies: RAW264.7, 24 h.
The subject of data set [8] is RAW264.7. As to the kind of experiment: Antiinflammatory activity in mouse RAW264.7 cells assessed as inhibition of LPS induced iNOS-dependent nitric oxide production at 1.25 ug/ml after 24 hrs by Griess assay relative to control. Format: functional. Conditions: RAW264.7, 24 h.
Data set [9] deals with RAW264.7. Nature of the data set: Antiinflammatory activity in mouse RAW264.7 cells assessed as inhibition of LPS induced iNOS-dependent nitric oxide production at 10 ug/ml after 24 hrs by Griess assay relative to control. Format: functional. The following applies: RAW264.7, 24 h.

Regarding `COc1cc(C(=O)CCc2cccc(OC)c2OC)ccc1O`, the viability at 24 h, 10 ug/ml in [1] was determined as 90.5%. The viability at 24 h, 1.25 ug/ml in data set [2] worked out at 94.1%. For the same compound, in [3], the IC50 (usually the point on the concentration scale where inhibition reaches its midpoint) is more than 10 µg/mL. Besides, the viability at 24 h, 2.5 ug/ml in [4] was 94.5%. Moreover, the inhibition – broadly, the drop in the measured response relative to a control, in per cent – at 5 µg/mL in data set [5] is 15.9%. In addition, in data set [6], the viability at 24 h, 5 ug/ml worked out at 91.1%. The inhibition at 2.5 µg/mL in data set [7] was 4.4%. The inhibition at 1.25 µg/mL in [8] came out at 0.1%. Moreover, the inhibition at 10 µg/mL in [9] was 33.3%.

As for `COc1ccc(C(=O)/C=C/c2cccc(OC)c2OC)c(O)c1`, the viability at 24 h, 10 ug/ml in [1] is 60.3%. Also, the viability at 24 h, 1.25 ug/ml in [2] is 94.2%. In addition, in data set [3], the IC50 amounted to 2.35 µg/mL (≈ 7.48 µM). In data set [4], the viability at 24 h, 2.5 ug/ml was 72.9%. Further, the inhibition at 5 µg/mL in [5] came out at 55.3%. For the same compound, in [6], the viability at 24 h, 5 ug/ml turned out to be 69.7%. For the same compound, the inhibition at 2.5 µg/mL in data set [7] came to 54.7%. In addition, the inhibition at 1.25 µg/mL in [8] worked out at 1.3%. For the same compound, in data set [9], the inhibition at 10 µg/mL was found to be 59.7%.

On to `COc1ccc(C(=O)CCc2ccc(OC)cc2OC)c(O)c1`, for which, in [1], the viability at 24 h, 10 ug/ml was 83.4%. Moreover, in [2], the viability at 24 h, 1.25 ug/ml came out at 97.8%. The IC50 in data set [3] was more than 10 µg/mL. The viability at 24 h, 2.5 ug/ml in [4] is 96.2%. Moreover, the inhibition at 5 µg/mL in data set [5] is 9%. In addition, in data set [6], the viability at 24 h, 5 ug/ml was determined as 87.4%. Further, in data set [7], the inhibition at 2.5 µg/mL was determined as 3.4%. The inhibition at 1.25 µg/mL in [8] was determined as 3%. Besides, the inhibition at 10 µg/mL in [9] worked out at 21.6%.

As for `COc1ccc(CCCc2ccc(OC)cc2O)cc1`, the viability at 24 h, 10 ug/ml in data set [1] amounted to 73.8%. The viability at 24 h, 1.25 ug/ml in data set [2] amounted to 98.9%. For the same compound, in data set [3], the IC50 stood at 6.37 µg/mL (≈ 23.4 µM). Besides, in [4], the viability at 24 h, 2.5 ug/ml stood at 96.8%. In addition, the inhibition at 5 µg/mL in [5] was found to be 37.8%. Moreover, the viability at 24 h, 5 ug/ml in [6] is 94.6%. For the same compound, the inhibition at 2.5 µg/mL in [7] turned out to be 30.5%. Besides, the inhibition at 1.25 µg/mL in [8] was found to be 25.7%. For the same compound, the inhibition at 10 µg/mL in data set [9] turned out to be 72.5%.

`COc1ccc(C(=O)CCc2ccc3c(c2)OCO3)c(OC)c1`: the viability at 24 h, 10 ug/ml in data set [1] stood at 81%. In addition, the viability at 24 h, 1.25 ug/ml in data set [2] stood at 87.4%. Also, in data set [3], the IC50 is more than 10 µg/mL. In addition, in data set [4], the viability at 24 h, 2.5 ug/ml turned out to be 87.2%. Moreover, the inhibition at 5 µg/mL in data set [5] was 6.6%. Also, the viability at 24 h, 5 ug/ml in data set [6] turned out to be 83.2%. Moreover, the inhibition at 2.5 µg/mL in [7] turned out to be 4.5%. For the same compound, the inhibition at 1.25 µg/mL in [8] is 0.2%. Further, in data set [9], the inhibition at 10 µg/mL amounted to 9.8%.

In the case of `COc1ccc(C(=O)CCc2ccc3c(c2)OCO3)c(O)c1`, in data set [1], the viability at 24 h, 10 ug/ml was found to be 94.4%. For the same compound, the viability at 24 h, 1.25 ug/ml in data set [2] amounted to 99.8%. The IC50 in [3] was more than 10 µg/mL. The viability at 24 h, 2.5 ug/ml in data set [4] came to 96.8%. Besides, the inhibition at 5 µg/mL in data set [5] worked out at 14.1%. Moreover, the viability at 24 h, 5 ug/ml in data set [6] amounted to 96.2%. In addition, the inhibition at 2.5 µg/mL in [7] came out at 10.6%. The inhibition at 1.25 µg/mL in data set [8] was 5.1%. The inhibition at 10 µg/mL in data set [9] was 25.9%.

`COc1ccc(CCCc2ccc(OC)c(OC)c2)cc1`: the viability at 24 h, 10 ug/ml in [1] was 95.1%. In data set [2], the viability at 24 h, 1.25 ug/ml amounted to 100%. In addition, in data set [3], the IC50 turned out to be 8.69 µg/mL (≈ 30.3 µM). In addition, the viability at 24 h, 2.5 ug/ml in data set [4] was determined as 100%. Besides, the inhibition at 5 µg/mL in [5] stood at 28.6%. The viability at 24 h, 5 ug/ml in data set [6] is 96.9%. For the same compound, the inhibition at 2.5 µg/mL in data set [7] was 15.1%. The inhibition at 1.25 µg/mL in [8] was 12.9%. For the same compound, the inhibition at 10 µg/mL in data set [9] turned out to be 55.4%.

`COc1ccc(CCC(=O)c2ccc(OC)cc2O)cc1`: the viability at 24 h, 10 ug/ml in data set [1] came out at 88%. Moreover, in [2], the viability at 24 h, 1.25 ug/ml is 95.1%. Also, the IC50 in data set [3] is more than 10 µg/mL. Also, the viability at 24 h, 2.5 ug/ml in [4] was found to be 94.5%. Further, the inhibition at 5 µg/mL in data set [5] was 14.5%. Also, the viability at 24 h, 5 ug/ml in data set [6] is 92.3%. Further, the inhibition at 2.5 µg/mL in [7] turned out to be 10.5%. The inhibition at 1.25 µg/mL in data set [8] amounted to 7.8%. For the same compound, the inhibition at 10 µg/mL in data set [9] was 25.9%.

`COc1ccc(CCC(=O)c2ccc(OC)c(OC)c2)cc1OC`: the viability at 24 h, 10 ug/ml in data set [1] was found to be 95.3%. Besides, the viability at 24 h, 1.25 ug/ml in data set [2] was determined as 99.6%. Also, the IC50 in data set [3] is more than 10 µg/mL. The viability at 24 h, 2.5 ug/ml in [4] was found to be 98%. Besides, in data set [5], the inhibition at 5 µg/mL amounted to 13.8%. Also, in [6], the viability at 24 h, 5 ug/ml was 96.2%. Further, the inhibition at 2.5 µg/mL in data set [7] was found to be 8.2%. Besides, in data set [8], the inhibition at 1.25 µg/mL turned out to be 5.9%. In data set [9], the inhibition at 10 µg/mL worked out at 31.1%.

`COc1ccc(C(=O)CCc2ccc(OC)c(OC)c2OC)c(O)c1`: in data set [1], the viability at 24 h, 10 ug/ml came out at 94%. Also, the viability at 24 h, 1.25 ug/ml in data set [2] stood at 101%. The IC50 in data set [3] is more than 10 µg/mL. Moreover, the viability at 24 h, 2.5 ug/ml in data set [4] was found to be 94.4%. Moreover, the inhibition at 5 µg/mL in data set [5] came to 7.5%. The viability at 24 h, 5 ug/ml in data set [6] was found to be 94.8%. In addition, in [7], the inhibition at 2.5 µg/mL amounted to 2.8%. Further, the inhibition at 1.25 µg/mL in data set [8] worked out at 0.9%. Besides, in data set [9], the inhibition at 10 µg/mL came to 10.3%.
